According to US10501514B2, “Cyclic galanin-analogs and uses thereof” (LanthioPep B.V., priority 2015, dated 2019):
Entries after “also recorded” stand apart in the source; their conditions may differ.

What was measured:
GalR1 [1] = biological target: T1, GalR1 (Homo sapiens, UniProt P47211); test: inhibition of cAMP synthesis in CHO-K1 cells expressing GalR1 (DiscoverX kit); format: cell-based; set-up: host or cells: CHO-K1; settings: FIG. 3
T1 sequence (P47211 1-349): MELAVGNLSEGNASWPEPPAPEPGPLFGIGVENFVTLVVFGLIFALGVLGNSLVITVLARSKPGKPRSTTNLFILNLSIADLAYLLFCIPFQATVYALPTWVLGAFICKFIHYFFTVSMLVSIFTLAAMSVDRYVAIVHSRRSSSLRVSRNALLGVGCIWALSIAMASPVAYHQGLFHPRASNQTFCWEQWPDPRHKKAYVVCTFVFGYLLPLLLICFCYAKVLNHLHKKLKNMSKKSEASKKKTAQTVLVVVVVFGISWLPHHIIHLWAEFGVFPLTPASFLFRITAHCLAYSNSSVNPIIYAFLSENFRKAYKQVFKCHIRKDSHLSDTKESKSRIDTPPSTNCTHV
Procedure: (§1) The biological activity of the (lanthi)galanins was determined in CHO-K1 cell lines that express either the GalR1, or GalR2 receptor. Activity measurements were performed using commercial kits from DiscoverX for determining arrestin recruitment (GalR1, GalR2) and inhibition of cAMP synthesis (GalR1). In addition, HEK293 cell lines that express the GalR2 receptor have been used for methods from Molecular Probes to measure calcium efflux (GalR2).
(§2) ND indicates ‘not determined’.
(§3) Peptide was dissolved in 0.3% ammonia. Peptides were incubated o/n at 37° C. for the introduction of the lanthionine via base assisted sulfur extrusion of the disulfide bridged peptide. […] Different isomers were purified and lyophilized. Dry peptides were dissolved in 100 mM phosphate buffer pH=7.6 and peptides were incubated o/n at 50° C. After HPLC purification peptides with a pE formation were selected and used in the different Galanin receptor activation assays.

[2] = test system: Galanin receptor (GalR1, GalR2); test: Galanin receptor activation assays, overall statements in words; format: cell-based; settings: for preference for stimulating GalR2 (over GalR1), in words: GalR2 versus GalR1; for activity, in words: overall statement on galanin receptor activation
Procedure: as §1
Peptide was dissolved in 0.3% ammonia. Peptides were incubated o/n at 37° C. for the introduction of the lanthionine via base assisted sulfur extrusion of the disulfide bridged peptide. Different isomers could be isolated by HPLC applying the same method as was used as for the biologically produced peptides. Different isomers were purified and lyophilized. Dry peptides were dissolved in 100 mM phosphate buffer pH=7.6 and peptides were incubated o/n at 50° C. After HPLC purification peptides with a pE formation were selected and used in the different Galanin receptor activation assays.

GalR2 = biological target: T2, GalR2 (Homo sapiens, UniProt O43603); format: cell-based; settings: for efficacy via GalR2 compared with GalWtb, in words: GalR2, Table 1 data
T2 construct: expressed in transfected cells; host or cells: HEK293
T2 sequence (O43603 1-387): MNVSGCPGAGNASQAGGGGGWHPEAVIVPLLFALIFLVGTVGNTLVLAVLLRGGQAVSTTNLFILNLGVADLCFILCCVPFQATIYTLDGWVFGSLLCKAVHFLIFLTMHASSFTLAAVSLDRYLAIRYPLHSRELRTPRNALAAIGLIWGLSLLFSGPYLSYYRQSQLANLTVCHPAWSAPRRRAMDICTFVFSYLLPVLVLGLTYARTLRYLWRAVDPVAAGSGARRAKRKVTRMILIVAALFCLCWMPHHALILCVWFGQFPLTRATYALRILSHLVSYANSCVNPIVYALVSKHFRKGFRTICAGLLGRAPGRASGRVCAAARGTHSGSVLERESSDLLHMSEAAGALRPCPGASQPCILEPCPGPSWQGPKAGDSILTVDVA
Procedure: as §2
Peptide was dissolved in 0.3% ammonia. […] Different isomers were purified and lyophilized.

GalR1 [3] = biological target: T1, GalR1; settings: FIG. 1
Procedure: as §1, §2, §3

Structure (SMILES): CC(C)C[C@H](NC(=O)[C@H](CC(C)C)NC(=O)[C@H](Cc1ccc(O)cc1)NC(=O)CNC(=O)[C@H](C)NC(=O)[C@H](C)NC(=O)[C@H](CC(N)=O)NC(=O)[C@H](CC(C)C)NC(=O)[C@H](CC(N)=O)NC(=O)[C@H](Cc1c[nH]c2ccccc12)NC(=O)CN)C(=O)NCC(=O)N1CCC[C@H]1C(=O)N[C@@H](Cc1c[nH]cn1)C(=O)N[C@H]1C(=O)N[C@@H](C(C)C)C(=O)NCC(=O)N[C@H](C(=O)N[C@@H](Cc2c[nH]cn2)C(=O)N[C@@H](CCCNC(=N)N)C(=O)O)CS[C@H]1C [GalM52]
- cAMP production via GalR1, in words (GalR1 [1]): inhibit cAMP production via GalR1

Structure (SMILES): CC(C)C[C@H](NC(=O)[C@H](CC(C)C)NC(=O)[C@H](Cc1ccc(O)cc1)NC(=O)CNC(=O)[C@H](C)NC(=O)[C@H](C)NC(=O)[C@H](CC(N)=O)NC(=O)[C@H](CC(C)C)NC(=O)[C@H](CC(N)=O)NC(=O)[C@H](Cc1c[nH]c2ccccc12)NC(=O)[C@@H]1CCC(=O)N1)C(=O)NCC(=O)N[C@@H](C)C(=O)N[C@H]1C(=O)N[C@@H](C)C(=O)N[C@@H](C(C)C)C(=O)N[C@H](C(=O)N[C@@H](CC(N)=O)C(=O)N[C@@H](Cc2c[nH]cn2)C(=O)N[C@@H](CCCNC(=N)N)C(=O)O)CS[C@H]1C [GalM54]
- preference for stimulating GalR2 (over GalR1), in words [2]: GalR2-specific; also recorded: preference for stimulating GalR2
- β-arrestin recruitment via GalR2, preference in words (GalR2; FIG. 2): preferentially stimulates β-arrestin recruitment via GalR2

Structure (SMILES): CC(C)C[C@@H]1NC(=O)[C@H](CC(C)C)NC(=O)[C@H](Cc2ccc(O)cc2)NC(=O)[C@H](NC(=O)[C@H](C)NC(=O)[C@H](C)NC(=O)[C@H](CC(N)=O)NC(=O)[C@H](CC(C)C)NC(=O)[C@H](CC(N)=O)NC(=O)[C@H](Cc2c[nH]c3ccccc23)NC(=O)[C@@H]2CCC(=O)N2)CSC[C@@H](C(=O)O)NC1=O [GalM82]
- activity, in words [2]: low activity

Structure (SMILES): CC(C)C[C@@H]1NC(=O)[C@H](CC(C)C)NC(=O)[C@H](Cc2ccc(O)cc2)NC(=O)C(NC(=O)[C@H](C)NC(=O)[C@H](C)NC(=O)[C@H](CC(N)=O)NC(=O)[C@H](CC(C)C)NC(=O)[C@@H](NC(=O)[C@H](Cc2c[nH]c3ccccc23)NC(=O)[C@@H]2CCC(=O)N2)[C@@H](C)O)CSCC(C(=O)O)NC1=O (single isomer, unassigned) [4179 C, pEWTLNAAlanYLLlan]
- Ratio EC50s relative to Gal-(1-15), GalR2 Ca efflux (GalR2): 248

Structure (SMILES): CC(C)C[C@H](NC(=O)[C@H](CC(C)C)NC(=O)[C@H](Cc1ccc(O)cc1)NC(=O)CNC(=O)[C@H](C)NC(=O)[C@H](C)NC(=O)[C@H](CC(N)=O)NC(=O)[C@H](CC(C)C)NC(=O)[C@H](CC(N)=O)NC(=O)[C@H](Cc1c[nH]c2ccccc12)NC(=O)[C@@H]1CCC(=O)N1)C(=O)N[C@@H](C)C(=O)N[C@H]1C(=O)N[C@@H](Cc2c[nH]cn2)C(=O)N[C@@H](C)C(=O)N[C@H](C(=O)NCC(=O)N[C@@H](CC(N)=O)C(=O)N[C@@H](Cc2c[nH]cn2)C(=O)N[C@@H](CCCNC(=N)N)C(=O)O)CS[C@H]1C [GalM50b]
- preference for stimulating GalR2 (over GalR1), in words [2]: preference for stimulating GalR2

Structure (SMILES): CC(C)C[C@H](NC(=O)[C@H](CC(C)C)NC(=O)[C@H](Cc1ccc(O)cc1)NC(=O)CNC(=O)[C@H](C)NC(=O)[C@H](C)NC(=O)[C@H](CC(N)=O)NC(=O)[C@@H](NC(=O)[C@H](CC(N)=O)NC(=O)[C@H](Cc1c[nH]c2ccccc12)NC(=O)CN)C(C)C)C(=O)NCC(=O)N[C@@H](C)C(=O)N[C@H]1C(=O)N[C@@H](C)C(=O)N[C@@H](C(C)C)C(=O)N[C@H](C(=O)N[C@@H](CC(N)=O)C(=O)N[C@@H](Cc2c[nH]cn2)C(=O)N[C@@H](CCCNC(=N)N)C(=O)O)CS[C@H]1C [GalM92]
- efficacy via GalR2 compared with GalWtb, in words (GalR2): comparable efficacy via GalR2 like GalWtb

Structure (SMILES): CC(C)C[C@H](NC(=O)[C@H](CC(C)C)NC(=O)[C@H](Cc1ccc(O)cc1)NC(=O)CNC(=O)[C@H](C)NC(=O)[C@H](C)NC(=O)[C@H](CC(N)=O)NC(=O)[C@H](CC(C)C)NC(=O)[C@H](CC(N)=O)NC(=O)[C@H](Cc1c[nH]c2ccccc12)NC(=O)[C@@H]1CCC(=O)N1)C(=O)NCC(=O)N1CCC[C@H]1C(=O)N[C@@H](Cc1c[nH]cn1)C(=O)N[C@@H](C)C(=O)N[C@H]1C(=O)NCC(=O)N[C@@H](CC(N)=O)C(=O)N[C@H](C(=O)N[C@@H](CCCNC(=N)N)C(=O)O)CS[C@H]1C [GalM74b]
- preference for stimulating GalR2 (over GalR1), in words [2]: preference for stimulating GalR2

Structure (SMILES): CC(C)C[C@H](NC(=O)[C@H](CC(C)C)NC(=O)[C@H](Cc1ccc(O)cc1)NC(=O)CNC(=O)[C@H](C)NC(=O)[C@H](C)NC(=O)[C@H](CC(N)=O)NC(=O)[C@H](CC(C)C)NC(=O)[C@H](CC(N)=O)NC(=O)[C@H](Cc1c[nH]c2ccccc12)NC(=O)CN)C(=O)NCC(=O)N[C@@H](C)C(=O)N[C@H]1C(=O)N[C@@H](C)C(=O)N[C@@H](C(C)C)C(=O)N[C@H](C(=O)N[C@@H](CC(N)=O)C(=O)N[C@@H](Cc2c[nH]cn2)C(=O)N[C@@H](CCCNC(=N)N)C(=O)O)CS[C@H]1C [GalM51]
- β-arrestin recruitment via GalR1, in words (GalR1 [3]): induced β-arrestin recruitment via GalR1
- cAMP production via GalR1, in words (GalR1 [1]): inhibit cAMP production via GalR1

Structure (SMILES): CC(C)C[C@@H]1NC(=O)[C@H](Cc2ccc(O)cc2)NC(=O)C(NC(=O)[C@H](C)NC(=O)[C@H](C)NC(=O)[C@H](CC(N)=O)NC(=O)[C@H](CC(C)C)NC(=O)[C@H](CC(N)=O)NC(=O)[C@H](Cc2c[nH]c3ccccc23)NC(=O)CN)CSC[C@@H](C(=O)NCC(=O)N2CCC[C@H]2C(=O)N[C@@H](Cc2c[nH]cn2)C(=O)N[C@@H](C)C(=O)N[C@H](C(=O)NCC(=O)N[C@@H](CC(N)=O)C(=O)N[C@@H](Cc2c[nH]cn2)C(=O)N[C@@H](CCCNC(=N)N)C(=O)O)C(C)C)NC(=O)[C@H](CC(C)C)NC1=O (stereo partly drawn) [GalM73]
- activity, in words [2]: retained some activity

Structure (SMILES): CC(C)C[C@H](NC(=O)[C@H](CC(C)C)NC(=O)[C@H](Cc1ccc(O)cc1)NC(=O)CNC(=O)[C@H](C)NC(=O)[C@H](C)NC(=O)[C@H](CC(N)=O)NC(=O)[C@H](CC(C)C)NC(=O)[C@H](CC(N)=O)NC(=O)[C@H](Cc1c[nH]c2ccccc12)NC(=O)[C@@H]1CCC(=O)N1)C(=O)N[C@@H](C)C(=O)N[C@H]1C(=O)N[C@@H](Cc2c[nH]cn2)C(=O)N[C@@H](C)C(=O)N[C@H](C(=O)NCC(=O)O)CS[C@H]1C [GalM89b]
- preference for stimulating GalR2 (over GalR1), in words [2]: preference for stimulating GalR2

Structure (SMILES): CC(C)C[C@H](NC(=O)[C@H](CC(C)C)NC(=O)[C@H](Cc1ccc(O)cc1)NC(=O)CNC(=O)[C@H](C)NC(=O)[C@H](C)NC(=O)[C@H](CC(N)=O)NC(=O)[C@H](CC(C)C)NC(=O)[C@H](CC(N)=O)NC(=O)[C@H](Cc1c[nH]c2ccccc12)NC(=O)[C@@H]1CCC(=O)N1)C(=O)NCC(=O)N1CCC[C@H]1C(=O)N[C@H]1C(=O)N[C@@H](C)C(=O)N[C@@H](C(C)C)C(=O)N[C@H](C(=O)O)CS[C@H]1C [GalM87]
- preference for stimulating GalR2 (over GalR1), in words [2]: preference for stimulating GalR2

Structure (SMILES): CC(C)C[C@H](NC(=O)[C@H](CC(C)C)NC(=O)[C@H](Cc1ccc(O)cc1)NC(=O)CNC(=O)[C@H](C)NC(=O)[C@H](C)NC(=O)[C@H](CC(N)=O)NC(=O)[C@H](CC(C)C)NC(=O)[C@H](CC(N)=O)NC(=O)[C@H](Cc1c[nH]c2ccccc12)NC(=O)[C@@H]1CCC(=O)N1)C(=O)NCC(=O)N[C@@H](C)C(=O)N[C@H]1C(=O)N[C@@H](C)C(=O)N[C@@H](C(C)C)C(=O)N[C@H](C(=O)N[C@@H](CC(N)=O)C(=O)N[C@@H](Cc2c[nH]cn2)C(=O)O)CS[C@H]1C [GalM54tr]
- preference for stimulating GalR2 (over GalR1), in words [2]: GalR2-specific

Structure (SMILES): CC(C)C[C@H](NC(=O)[C@H](CC(C)C)NC(=O)[C@H](Cc1ccc(O)cc1)NC(=O)CNC(=O)[C@H](C)NC(=O)[C@H](C)NC(=O)[C@H](CC(N)=O)NC(=O)[C@H](CC(N)=O)NC(=O)[C@H](CC(N)=O)NC(=O)[C@H](Cc1c[nH]c2ccccc12)NC(=O)CN)C(=O)NCC(=O)N[C@@H](C)C(=O)N[C@H]1C(=O)N[C@@H](C)C(=O)N[C@@H](C(C)C)C(=O)N[C@H](C(=O)N[C@@H](CC(N)=O)C(=O)N[C@@H](Cc2c[nH]cn2)C(=O)N[C@@H](CCCNC(=N)N)C(=O)O)CS[C@H]1C [GalM94]
- efficacy via GalR2 compared with GalWtb, in words (GalR2): comparable efficacy via GalR2 like GalWtb
